Source: patent US20060147558A1, “Remedies” (priority 2000, published 2006)

Columns and labels:
[1] = system: NGF production of L-M cells; assay: enhancing activity for NGF production: L-M cells cultured 20 h with sample, NGF in medium by enzyme immunoassay; assay type: cell-based, murine; conditions: for Amount of NGF Produced: control = 100%; for enhancing activity for NGF production: result in words, no value given
Method: L-M cells (ATCC CCL-1.2) from murine fibroblasts were suspended in an M199 medium (manufactured by ICN) containing 0.5% bactopeptone (manufactured by Gibco) so as to have a concentration of 1.5×10^5 cells/ml. The suspension was put in a 96 well plate in an amount of 0.1 ml each well, and the cells were aseptically cultured. After culturing the cells for 3 days, the medium was removed therefrom, and exchanged with an M199 medium containing 0.5% bovine serum albumin (manufactured by Sigma). […] After the termination of the culture, the concentration of the nerve growth factor in the culture medium was assayed by an enzyme immunoassay method (NGF Emax Immuno Assay System, manufactured by Promega). The enhancement for NGF production was expressed, assuming that the NGF concentration in the cell culture medium with no addition of the sample is 100%. The experiment was carried out twice, and an average value was taken. As a result, the yellow pigment from Carthamus tinctorius enhanced NGF production of the L-M cells in a concentration dependent manner.

[2] = system: HGF production of MRC-5 cells; assay: enhancing activity for HGF production: MRC-5 cells cultured 24 h with sample, HGF in medium by ELISA; assay type: cell-based, human; conditions: for Amount of HGF Produced: control = 100%
Method: (1) The enhancing activity for HGF production of each of the bamboo blade extract (sample (1)) prepared in item (1) of Example 1, and the lower layer fraction (sample (2)) and the upper layer fraction (sample (3)) prepared in item (2) of Example 1 was assayed. Five-hundred microliters each of MRC-5 cells (CCL 171: manufactured by DAINIPPON PHARMACEUTICAL CO., LTD., code. 02-021) suspended in a DME medium containing 10% fetal bovine serum so as to have a concentration of 1×10^5 cells/ml were added into each well of a 48-well cell culture plate. The cells were cultured at 37° C. for 24 hours in the presence of 5% CO2, and then the medium was exchanged for a DME medium containing 1% fetal bovine serum. Thereafter, the sample was added to the medium, and the cells were further cultured for 24 hours. The medium was then collected, and by using Quantikine Human Hepatocyte Growth Factor (HGF) ELISA Kit (manufactured by Funakoshi, Code. RS-0641-00), the amount of HGF in the medium was determined. The amount of HGF produced was expressed, assuming that the value of the negative control is 100%. […] As the negative control, distilled water was added in the same volume as that of the sample. The amount of HGF produced was expressed, assuming that the value of the negative control is 100%. The results for the sample (1) are shown in Table 1, and the results for the sample (2) and the sample (3) are shown in Table 2. Each experiment was carried out twice, and its average value was taken. […] From the above, it was shown that the bamboo blade extract has an enhancing activity for HGF production.

For `COc1cc(O)c(CC=C(C)C)c2c1C(=O)CC(c1ccc(O)cc1)O2` (stereo not drawn) [Isoxanthohumol, isoxanthohumol], the “Amount of NGF Produced” value ([1]; 50 μM) was 110.7%, the “Amount of NGF Produced” value ([1]; 100 μM) was 121.4% and the “Amount of NGF Produced” value ([1]; 200 μM) was 198.0%.

For `COc1cc(O)c(CC=C(C)C)c(O)c1C(=O)/C=C/c1ccc(O)cc1` [Xanthohumol, xanthohumol], the “Amount of NGF Produced” value ([1]; 12.5 μM) was 235.5%, the “Amount of NGF Produced” value ([1]; 25 μM) was 387.9% and the “Amount of NGF Produced” value ([1]; 50 μM) was 443.0%. The “enhancing activity for NGF production” value [1] was “has the activity”.

In the case of `C/C=C(/C)C(=O)OC1c2c(ccc3ccc(=O)oc23)OC(C)(C)C1O[C@@H]1O[C@H](CO[C@@H]2O[C@H](CO)[C@@H](O)[C@H](O)[C@H]2O)[C@@H](O)[C@H](O)[C@H]1O` (stereo partly drawn) [19-, 20-6 (18.8), 4′-O-angeloyl-3′-O-[6-O-(β-D-glucopyranosyl)-β-D-glucopyranosyl]-khellactone], the “Amount of NGF Produced” value ([1]; 1.0 mg/ml) is reported as 337.7%.

With `O=C(/C=C/c1ccc(O)c(O)c1)O[C@@H]1C[C@](O)(C(=O)O)C[C@@H](O)[C@H]1O` [Chlorogenic Acid, chlorogenic acid] the “Amount of HGF Produced” value ([2]; 1 μM) was 105%, the “Amount of HGF Produced” value ([2]; 10 μM) was 122% and the “Amount of HGF Produced” value ([2]; 100 μM) was 302%. The “Amount of HGF Produced” value ([2]; 500 μM) was 479%, the “Amount of HGF Produced” value ([2]; 1000 μM) was 624% and the “enhancing activity for HGF production” value ([2]; result in words, no value given) was “enhancing activity for HGF production existed”.

With `CC(C)=CCc1cc2ccc(=O)oc2cc1O[C@@H]1O[C@H](CO)[C@@H](O)[C@H](O)[C@H]1O` [19-, 20-5 (16.4), 7-β-D-glucopyranosyloxy-6-prenylcoumarin] the “Amount of NGF Produced” value ([1]; 1.0 mg/ml) was 487.9%.

For `CC(C)=CCc1c(O[C@@H]2O[C@H](CO)[C@@H](O)[C@H](O)[C@H]2O)ccc2ccc(=O)oc12` [13-2 (8.7), 7-O-β-D-glucopyranosyloxy-8-prenylcoumarin], the “Amount of NGF Produced” value ([1]; 1.0 mg/ml) was 792.1%.

With `CC(C)=CCC/C(C)=C/Cc1c(O)ccc(C(=O)/C=C/c2ccc(O)cc2)c1O` [Xanthoangelol, xanthoangelol] the “Amount of NGF Produced” value ([1]; 25 μM) was 126.1%, the “Amount of NGF Produced” value ([1]; 50 μM) was 202.6% and the “Amount of NGF Produced” value ([1]; 100 μM) was 265.7%.

For `CCOC(=O)/C=C/c1ccc(O)c(O)c1` [28 (91.4), caffeic acid ethyl ester], the “Amount of NGF Produced” value ([1]; 0.05 mg/ml) was 1058.1%.

For `COC(=O)/C=C/c1ccc(O)c(O)c1` [18-3 (10.6), caffeic acid methyl ester], the “Amount of NGF Produced” value ([1]; 0.25 mg/ml) was 3039.6%.

For `COC(=O)/C=C/c1ccc(O)c(O)c1` [Caffeic acid methyl ester, caffeic acid methyl ester], the “Amount of NGF Produced” value ([1]; 62.5 μg/ml) was 824.4%.

`O=C(/C=C/c1ccc(O)c(O)c1)O[C@@H]1CC(O)(C(=O)O)C[C@@H](OC(=O)/C=C/c2ccc(O)c(O)c2)C1O` (stereo partly drawn) [3,5-Dicaffeoyl-quinic Acid, 3,5-dicaffeoyl-quinic acid] was tested, and the “Amount of HGF Produced” value ([2]; 1 μM) was 142%, the “Amount of HGF Produced” value ([2]; 10 μM) was 206% and the “Amount of HGF Produced” value ([2]; 100 μM) was 290%.

With `CCOC(=O)/C=C/c1ccc(O)c(O)c1` [Caffeic acid ethyl ester, caffeic acid ethyl ester] the “Amount of NGF Produced” value ([1]; 62.5 μg/ml) was 1279.1%.

With `O=C1C([C@@H]2O[C@H](CO)[C@@H](O)[C@H](O)[C@H]2O)=C(O)/C(=C(O)/C=C/c2ccc(O)cc2)C(=O)C1(O)[C@@H]1O[C@H](CO)[C@@H](O)[C@H](O)[C@H]1O` (stereo partly drawn) [Safflomin A, safflomin A] the “Amount of NGF Produced” value ([1]; 2.5 mg/ml) was 130.7% and the “enhancing activity for NGF production” value [1] was “has the enhancing activity for NGF production”.

With `COc1ccc(C(=O)O)c2c1CC(O)C(C)(C)O2` (stereo not drawn) [18-4 (10.9), 8-carboxyl-3-hydroxy-5-methoxyl-2-dimethylchroman] the “Amount of NGF Produced” value ([1]; 0.0375 mg/ml) was 2510.4%.

In the case of `CC1(C)Oc2ccc3ccc(=O)oc3c2C(O)C1OC1OC(CO)C(O)C(O)C1O` [10 (62.2), 3′-O-β-D-glucopyranoyl khellactone], the “Amount of NGF Produced” value ([1]; 2.0 mg/ml) is reported as 565.5%.
